Patent US9770423B2, “Modulation sAPP, sAAPα and BDNF levels in individuals diagnosed with FXS and ASD” (Indiana University Research and Technology Corp., priority 2012, dated 2017)
“And” between values parts separate entries of the source, which are not always exact repeats. Equal entries are not always repeated.

Experiments:
[1] = tested on: youth with autistic disorder (idiopathic ASD); experiment: 12-week single-blind placebo lead-in trial of acamprosate in youth with autistic disorder: behavioral outcome measures; type: in vivo, human
Experimental: One study was a 12-week single-blind, placebo-controlled trial of acamprosate in 12 youths with autistic disorder was conducted. The primary outcome measured was the Clinical Global Impression Improvement (CGI-I) scale with several additional behavioral secondary outcome measures employed. In this study, secreted amyloid precursor protein (sAPP) was measured pre- and post acamprosate treatment as blood biomarker assay Result: Twelve subjects (mean age=10.4 yrs.) entered the study and nine subjects completed a two week placebo lead-in and entered active treatment (mean final dose=1,073 mg/day). Six of nine (67%) subjects receiving acamprosate were judged treatment responders with a CGI-I score of 1 “very much improved” or 2 “much improved”. […] Among secondary outcome measures analyzed, significant acamprosate-associated improvement was noted on measures of social behavior and hyperactivity. Acamprosate use was also associated with reductions in sAPP levels.
The first project enrolled 12 youth aged 5 to 17 years with fragile X syndrome and comorbid ASD in a 10-week open-label trial of acamprosate. The second project enrolled 12 youth aged 5 to 17 years diagnosed with idiopathic ASD in a 12-week single-blind placebo lead-in study of acamprosate. In both projects, concomitant dosing of psychotropic drugs remained stable throughout study. In each project, pre- and post-acamprosate treatment plasma levels of sAPP total and sAPPα were obtained. All APP assay samples were collected, chilled, and walked within 2 hours of blood draw to the lab for analysis. Plasma sAPP total and sAPPα were determined in […] using the ELISA kit obtained from Immuno Biological Laboratories (IBL, Gumma, Japan). The ELISA kit is validated to measure levels of sAPPα in human samples and able to detect as low as 0.09 ng/ml of sAPPα in a typical sample, with only 0.3% cross-reactivity to sAPPβ. Levels of sAPP total and sAPPα in plasma were reported in nanograms per milliliter (ng/mL). Statistical analysis of pre- and post-acamprosate sAPP total and sAPPα levels were conducted using paired T-tests. Finally an exploratory post-hoc analysis of potential correlation between percent change in sAPP total or sAPPα and percent change in scores on the Aberrant Behavior Checklist Social Withdrawal/Lethargy subscale (ABC-SW) was conducted. The ABC-SW measures social impairment which is a core symptom domain of ASD. Post-hoc analysis was done with Spearman correlation calculations. All data was analyzed in IBM SPSS Version 20.
A 12-week single-blind, placebo-controlled trial of the effect of acamprosate in the treatment of 12 youths with autistic disorder aged 5 to 17 years was carried out. In order to pilot test use of acamprosate in youth with autism targeting core social impairment, was conducted. All subjects and their family members were blinded to treatment status. All subjects participated in a 2 week placebo-lead-in phase prior to 10 weeks of treatment with acamprosate. For this project, enteric coated commercially available 333 mg acamprosate pills were over-encapsulated and identical matching placebo manufactured for the project. Placebo-responders, defined by a Clinical Global Impressions Improvement scale (CGI-I) score of 1 “very much improved” or 2 “much improved” (ratings anchored to core social deficits) at week 2 were asked to exit the study. During active treatment with acamprosate, dosing was increased in 333 mg increments per week over the first six weeks of active treatment to a maximum dose of 1,332 mg/day (weight<5 60 kg) or 1,998 mg/day (weight>60 kg). During the final four weeks of active drug treatment, subjects were maintained on a stable highest tolerated (optimal) dose. The primary outcome measure was the clinician-rated CGI-I anchored to symptoms of social impairment. […]

sAPP = experiment: plasma sAPP total by ELISA pre- and post-acamprosate; type: in vivo, human; details: individual patients 1-6, titled as diagnosed with FXS; after treatment
[2] = tested on: extracellular dopamine levels in the nucleus accumbens; details: rats; dependent on glycine receptor activation; cited from earlier work
BDNF = experiment: plasma BDNF by ELISA in the FXS open-label trial; type: in vivo, human
Experimental: Blood samples for BDNF were drawn at Screen and at Week 10 of the study. BDNF analysis was done blind to patient assignment (pre- or post-treatment). Approximately 4 ml of blood was collected in EDTA containing tubes. Within 30 minutes of collection, the blood was centrifuged at 1000 g at 2-8° C. for 15 minutes. Plasma was collected and an additional centrifugation of the collected plasma at 1000 g at 2-8° C. for 10 minutes was done to completely remove platelets from the samples. All plasma samples were stored at −80° C. BDNF assays were done at the same time with all samples in triplicate. To determine plasma BDNF, a sensitive ELISA based method was used using human BDNF ELISA kit from R&D systems (Minneapolis, Minn.; USA) that is validated for detection of BDNF present in human plasma (Grassi-Oliveira et al., 2008). The amount (pg/ml) of BDNF present in the plasma samples was determined from the pg value obtained in the standard curve using a known amount of pure human BDNF, which was run at the same time with subjects' samples.
All data were recorded in IBM SPSS Statistics Professional for statistical analysis. Potential differences in pre- and post-treatment mean values of all outcome measures employed were calculated using paired t-tests. […] Effect sizes were calculated by taking the mean change from baseline to endpoint divided by the standard deviation at baseline.

## CC(=O)NCCCS(=O)(=O)O.[Ca] [acamprosate, Calcium Acetylhomotaurine]
[1]; autistic disorder, baseline 4.22+/-0.4, p=0.013
  CGI-S at endpoint: 3.7+/−0.5
[1]; autistic disorder, baseline 14.1+/-8.5, p=0.019
  ABC Lethargy/Social Withdrawal subscale (ABC-SW) at endpoint: 10.0+/−8.4
[1]; autistic disorder, baseline 25.4+/-12.6, p=0.005
  ABC Hyperactivity subscale at endpoint: 16.6+/−12.4
[1]; autistic disorder, baseline 29.5+/-10.4, p=0.002
  ADHD-RS at endpoint: 20.75+/−9.7
[1]; autistic disorder, baseline 107+/-28, p=0.002
  SRS total raw score at endpoint: 91.4+/−30
[1]; nine subjects, last observation carried forward
  mean CGI-I at last visit: 2
[1]; of 9 youth with idiopathic ASD
  treatment responders, number of subjects: 6
[1]; six of nine subjects receiving acamprosate, autistic disorder, mean final dose 1,073 mg/day
  treatment responders (CGI-I score of 1 or 2): 67%
sAPP
  sAPP (total)-CP, Week 12: 5.561 ng/mL and 25.16 ng/mL and 12.84 ng/mL and 8.077 ng/mL and 56.8 ng/mL and 7.547 ng/mL
[2]
  extracellular dopamine levels in the nucleus accumbens: elevates extracellular dopamine levels
BDNF; 10 subjects with FXS
  change in plasma BDNF from screen to Week 10: All subjects experienced an increase
BDNF; Week 10, 10 subjects with FXS, screen 790.4±1350.4 pg/mL, p=0.01
  mean subject plasma BDNF after treatment: 1007.6 ± 1493.2 pg/mL
